Measured values: EPA's ToxValDB 9.5 (doi:10.2903/j.efsa.2012.2879)
Converted amounts (≈) assume the structure as drawn.

Key:
Colinus virginianus = details: acute, oral, mortality
Apis mellifera = details: acute; duration: 48 hours; dermal; mortality
Daphnia magna = details: chronic/long-term; duration: 21 days; reproduction

Cc1cc(C)c(C2=C(OC(=O)CC(C)(C)C)C3(CCCC3)OC2=O)c(C)c1 [Spiromesifen]
NOEC (Anas platyrhynchos; reproductive, reproduction): 229 mg/kg | LC50 (Anas platyrhynchos; short-term, oral, feed, mortality): > 5000 mg/kg | LC50 (Colinus virginianus; diet): > 5000 mg/kg | LD50 (Colinus virginianus): > 2000 mg/kg | LC50 (Tagia sp.; acute, duration: 14 days, mortality): > 1000 mg/kg | NOEC (Tagia sp.; chronic/long-term, duration: 56 days, reproduction): 4.32 mg/kg | NOAEL (Rattus norvegicus; acute, neurology): 2000 mg/kg-day | LD50 (Rattus norvegicus; acute, oral, mortality): > 2500 mg/kg | NOEC (Rattus norvegicus; reproduction developmental, reproduction): 30 mg/kg-day | LD50 (Apis mellifera): > 200 µg/piece | NOAEL (Mus musculus; chronic, duration: 18 months): 3 mg/kg-day | NOAEL (Mus musculus; subchronic, duration: 90 days, oral, clinical chemistry): 3 mg/kg-day | NOEC (Daphnia magna): 0.00025 mg/L | LC50 (Oncorhynchus mykiss; acute, duration: 96 hours, mortality): 0.016 µg/mL (≈ 0.0432 µM) | NOEC (Oncorhynchus mykiss; chronic/long-term, duration: 97 days): 0.00473 mg/L
